Here are results for 48 compounds from patent EP1673349B1, “BENZIMIDAZOLE DERIVATIVES: PREPARATION AND PHARMACEUTICAL APPLICATIONS” (priority 2003, dated 2005).

In assay [1] the test system is Colo205. As to the kind of experiment: Cell-based proliferation assay (cyquant), Colo205.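 Further: Colo205 cells exposed for 96 h to a range of compound concentrations, growth read by CyQUANT, GI50 taken from plotted dose-response curves.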 The arrangement: species or system human. The following applies: Table 4, 96 h treatment.
Protocol: (§1) Human colon cancer cell lines (Colo205 and HCT116), human breast cancer cell lines (MDA-MB435 and MDA-MB231), and human lung cancer cell line (A549) were obtained from ATCC. […] MDA-MB435 cells were cultivated in DMEM containing 2 mM L-Glutamine, 5% FBS. HCT116 cells were cultivated in IMEM containing 2 mM L-Glutamine, 5% FBS. A549 and Colo205 cells were seeded in 96-wells plate at 2000 and 5000 cells per well respectively. MDA-MB435, HCT116, MDA-MB231 cells were seeded in 96-wells plate at 6000 cells per well. The plates were incubated at 37°C, 5% CO2, for 24 h. Cells, were treated with compounds at various concentration for 96 h. Cell growth was then monitored using cyquant cell proliferation assay (Invitrogen Pte Ltd). Dose response curves were plotted to determine GI50 values for the compounds using XL-fist.
In assay [2] the target is HDAC8 enzyme. Put plainly: In vitro HDAC assay (BIOMOL fluorescent-based HDAC activity assay), HDAC8. The following applies: Table 3; read-out: HDAC8 Enzyme Activity IC50. The format is biochemical, human.
Protocol: (§2) Expression of GST-HDAC1 or HTGST-HDAC8 was done by infecting SF9 cells (Invitrogen Pte Ltd) with pDEST20-HDAC1 or pFASTBAC-GST-HDAC8 baculovirus at MOI=1 for 48 h. Soluble cell lysate was incubated with pre-equilibrated Glutathione Sepharose 4B beads (Amersham) at 4°C for 2 h. The beads were washed with PBS buffer for 3 times. The GST-HDAC1 protein or GST-HDAC8 protein was eluted by elution buffer containing 50 mM Tris, pH8.0, 150mM NaCl, 1% Triton X-100 and 10mM or 20mM reduced Glutathione. The purified GST-HDAC1 protein or purified GST-HDAC8 protein was dialyzed with HDAC storage buffer containing 10mM Tris, pH7.5, 100mM NaCl and 3mM MgCl2. 20% Glycerol was added to purified GST-HDAC1 protein or purified GST-HDAC8 before storage at -80°C.
(§3) The assay has been carried, out in 96 well format and the BIOMOL fluorescent-based HDAC activity assay has been applied. […] Flur de lys Developer was added and the reaction was incubated for 10 min. Briefly, deacetylation of the substrate sensitizes it to the developer, which then generates a fluorophore (symbol). The fluorophore is excited with 360 nm light and the emitted light (460 nm) is detected on a fluorometric plate reader (Tecan Ultra Microplate detection system, Tecan Group Ltd.).
(§4) The analytical software, Prism 3.0 has been used to generate IC50 from a series of data.
In assay [3] the target is HDAC1 enzyme (Homo sapiens, UniProt Q13547). Put plainly: In vitro HDAC assay (BIOMOL fluorescent-based HDAC activity assay), HDAC1. The format is biochemical. Particulars: Table 3; read-out: HDAC1 Enzyme Activity IC50.
HDAC1 enzyme, sequence (Q13547 whole entry): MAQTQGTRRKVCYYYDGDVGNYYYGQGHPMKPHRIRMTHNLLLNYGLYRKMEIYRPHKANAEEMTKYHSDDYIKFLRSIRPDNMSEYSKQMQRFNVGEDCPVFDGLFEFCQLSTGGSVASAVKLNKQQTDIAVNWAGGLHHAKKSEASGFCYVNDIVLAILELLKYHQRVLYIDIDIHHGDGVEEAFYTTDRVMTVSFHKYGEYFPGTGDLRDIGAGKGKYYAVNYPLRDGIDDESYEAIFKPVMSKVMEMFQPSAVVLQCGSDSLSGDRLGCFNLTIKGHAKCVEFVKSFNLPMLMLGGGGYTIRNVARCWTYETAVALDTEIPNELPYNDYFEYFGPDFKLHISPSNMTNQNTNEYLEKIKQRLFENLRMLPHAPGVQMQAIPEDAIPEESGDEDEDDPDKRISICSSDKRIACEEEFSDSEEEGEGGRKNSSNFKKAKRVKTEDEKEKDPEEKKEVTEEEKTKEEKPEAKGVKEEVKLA
Protocol: as §2, §3, §4
Assay [4] concerns MDA-MB435. Put plainly: Cell-based proliferation assay (cyquant), MDA-MB435.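 Further: GI50 taken from dose–response curves over a range of compound concentrations, with cell growth quantified by the CyQUANT proliferation assay.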 On the set-up: species or system human. Particulars: Homo sapiens, MDA-MB-435; Table 4; 96 h treatment.
Protocol: as §1

Read-outs that look alike come from different tables or passages of the source.

In general, GI50 refers to the concentration giving 50% growth inhibition. By IC50 is commonly meant the concentration that inhibits the measured activity by half. `COc1ccc(-c2nc3cc(/C=C/C(=O)NO)ccc3n2CCO)cc1` [Compound 5, N-Hydroxy-3-[1-(2-hydroxy-ethyl)-2-(4-methoxy-phenyl)-1H-benzimidazole-5-yl]-acrylamide] returned a GI50 in assay [1] (Homo sapiens, COLO 205) of over 100000 nM. Moreover, the IC50 in assay [2] was 401 nM.

Regarding `O=C(/C=C/c1ccc2c(c1)nc(CCc1ccccc1)n2CC(O)CO)NO` (stereo not drawn) [Compound 8], the IC50 is 286 nM in assay [3] and 454 nM in assay [2].

Turning to `O=C(/C=C/c1ccc2c(c1)nc(-c1ccncc1)n2CCO)NO` [Compound 10, N-Hydroxy-3-[1-(2-hydroxy-ethyl)-2-(4-pyridyl)-1H-benzimidazol-5-yl]-acrylamide], the IC50 in assay [2] was found to be 883 nM.

As for `O=C(/C=C/c1ccc2c(c1)nc(-c1ccccn1)n2CCCO)NO` [Compound 13, N-Hydroxy-3-[1-(3-hydroxy-propyl)-2-(2-pyridyl)-1H-benzimidazol-5-yl]-acylamide], the IC50 in assay [3] turned out to be 385 nM; in assay [2], 141 nM.

Take `COCCCn1c(CCc2ccccc2)nc2cc(/C=C/C(=O)NO)ccc21` [Compound 15]: the values for the IC50 in assay [3] and in assay [2] were 206 nM and 313 nM, respectively.

For `O=C(/C=C/c1ccc2c(c1)nc(CCc1ccccc1)n2CCc1ccccn1)NO` [Compound 18], the IC50 was determined as 438 nM in assay [3] and 290 nM in assay [2].

`CC(C)Cc1nc2cc(/C=C/C(=O)NO)ccc2n1CCc1ccccn1` [Compound 22]: the IC50 in assay [3] was determined as 1330 nM; in assay [2] it was 234 nM.

As for `O=C(/C=C/c1ccc2c(c1)nc(CCc1ccccc1)n2CCc1ccccc1)NO` [Compound 26, N-Hydroxy-3-(1,2-Diphenethyl-1H-benzimidazol-5-yl]-acylamide], the GI50 in assay [1] (Homo sapiens, COLO 205, 96 h) was 8790 nM; in assay [4] it was 6670 nM.

On to `O=C(/C=C/c1ccc2c(c1)nc(COCc1ccccc1)n2CCc1cccnc1)NO` [Compound 28], for which the IC50 was 206 nM in assay [3] and 300 nM in assay [2].

For the compound `CC(C)Cc1nc2cc(CCC(=O)NO)ccc2n1CCCO` [Compound 29, N-Hydroxy-3-[1-(3-Hydroxy-propyl)-2-isobutyl-1H-benzimidazol-5-yl]-propionamide], the results for the IC50 in assay [3] and in assay [2] were 49100 nM and 34000 nM, respectively.

`O=C(O)CCn1c(CCc2ccccc2)nc2cc(/C=C/C(=O)NO)ccc21` [Compound 32, 3-[5-(2-Hydrocarbamoyl-vinyl)-2-phenethyl-benzimidazol-1-yl]-propionic acid]: the results for the IC50 in assay [3] and in assay [2] were 2210 nM and 1890 nM, respectively.

For the compound `CC(C)Cc1nc2cc(/C=C/C(=O)NO)ccc2n1Cc1ccccc1` [Compound 34, N-Hydroxy-3-(1-Benzyl-2-isobutyl-1H-benzimidazol-5-yl)-acrylamide], the IC50 in assay [2] was found to be 846 nM.

Regarding `CCCn1cnc2cc(/C=C/C(=O)NO)ccc21` [Compound 37, N-Hydroxy-3-(1-propyl-1H-benzimidazol-5-yl)-acrylamide], the 50% growth inhibitory concentration (GI50) in assay [1] (Homo sapiens, COLO 205) was 7820 nM; in assay [4], 7900 nM.

As for `CCn1c(CCc2ccccc2)nc2cc(/C=C/C(=O)NO)ccc21` [Compound 38, N-Hydroxy-3-(1-Ethyl-2-phenethyl-1H-benzimidazol-5-yl)-acrylamide], the GI50 stood at 1470 nM in assay [1] (Homo sapiens, COLO 205, 96 h) and 1530 nM in assay [4].

In the case of `CCn1cnc2cc(/C=C/C(=O)NO)ccc21` [Compound 39, N-Hydroxy-3-(1-Ethyl-1H-benzimidazol-5-yl)-acrylamide], the 50% growth inhibitory concentration (GI50) worked out at 11700 nM in assay [1] (Homo sapiens, COLO 205, 96 h) and 12000 nM in assay [4].

As for `O=C(NO)c1ccc2c(c1)nc(CCc1ccccc1)n2CCCO` [Compound 40, 1-(3-Hydroxy-prorpyl)-2-phenethyl-1H-benzimidazol-5-carboxylic acid hydroxyamide], the results for the IC50 in assay [3] and in assay [2] were 3300 nM and 441 nM, respectively.

Consider `CC(Cc1nc2cc(/C=C/C(=O)NO)ccc2n1CCc1cccnc1)c1ccccc1` (stereo not drawn) [Compound 41], for which the IC50 came out at 195 nM in assay [3] and 159 nM in assay [2].

Consider `O=C(/C=C/c1ccc2c(c1)ncn2CCc1ccccn1)NO` [Compound 42, N-Hydroxy-3-[1-(2-pyridin-2-yl-ethyl)-1H-benzimidazol-5-yl]-acrylamide], for which the GI50 in assay [1] (Homo sapiens, COLO 205) came out at 14400 nM; in assay [4] it was 15800 nM.

As for `CC(C)c1nc2cc(/C=C/C(=O)NO)ccc2n1CCCO` [Compound 46], the IC50 in assay [3] turned out to be 1670 nM.

As for `Cn1c(CCc2ccccc2)nc2cc(/C=C/C(=O)NO)ccc21` [Compound 48, N-Hydroxy-3-(1-methyl-2-phenethyl-1H-benzimidazol-5-yl)-acrylamide], the GI50 in assay [1] (Homo sapiens, COLO 205, 96 h) stood at 1450 nM; in assay [4], 1780 nM.

Turning to `O=C(/C=C/c1ccc2[nH]c(CCc3ccccc3)nc2c1)NO` [Compound 50, N-Hydroxy-3-(2-phenethyl-1H-benzimidazol-5-yl)-acrylamide], the GI50 in assay [1] (Homo sapiens, COLO 205, 96 h) stood at 4290 nM; in assay [4], 5190 nM.

With `Cn1c(CCCc2ccccc2)nc2cc(/C=C/C(=O)NO)ccc21` [Compound 52, N-Hydroxy-3-[1-methyl-2-(3-phenyl-propyl)-1H-benzimidazol-5-yl]-acrylamide], the GI50 in assay [1] (Homo sapiens, COLO 205) is 2040 nM; in assay [4] it was 3580 nM.

With `O=C(/C=C/c1ccc2c(c1)nc(CCc1ccccc1)n2CCCn1ccnc1)NO` [Compound 56, N-Hydroxy-3-[1-(-3-imidazol-1-yl-propyl)-2-phenethyl-1H-benzimidazol-5-yl]-acrvlamide], the half-inhibitory concentration (IC50) in assay [3] was found to be 158 nM.

For `CN(C)CCCCn1c(CCc2ccccc2)nc2cc(/C=C/C(=O)NO)ccc21` [Compound 57, N-Hydroxy-3-[1-(4-dimethylamino-butyl)-2-phenethyl-1H-benzimidazol-5-yl]-acrylamide], the GI50 amounted to 1110 nM in assay [1] (Homo sapiens, COLO 205, 96 h) and 1390 nM in assay [4].

As for `Cn1c(CNCc2ccccc2)nc2cc(/C=C/C(=O)NO)ccc21` [Compound 60, N-Hydroxy-3-[2-(benzylamino-methyl)-1-methyl-1H-benzimidazol-5-yl]-acrylamide], the GI50 in assay [1] (Homo sapiens, COLO 205) turned out to be 2470 nM; in assay [4], 3600 nM.

In the case of `Cn1c(CN(Cc2ccccc2)Cc2ccccc2)nc2cc(/C=C/C(=O)NO)ccc21` [Compound 61], the IC50 in assay [3] worked out at 196 nM.

`COc1ccc(CNCc2nc3cc(/C=C/C(=O)NO)ccc3n2C)cc1` [Compound 62]: the IC50 in assay [3] is 234 nM.

For the compound `CN(C)CCCn1c(CCc2ccccc2)nc2cc(/C=C/C(=O)NO)ccc21` [Compound 63, N-Hydroxy-3-[1-(3-dimethylamino-propyl)-2-phenethyl-1H-benzimidazol-5-yl]-acrylamide], growth in assay [1] (Homo sapiens, COLO 205, 96 h) was halved (GI50) at 2000 nM.

`CCN(CC)CCn1c(CCc2ccccc2)nc2cc(/C=C/C(=O)NO)ccc21` [Compound 66, N-Hydroxy-3-[1-(2-diethylamino-ethyl)-2-phenethyl-1H-benzimidazol-5-yl]-acrylamide]: the GI50 in assay [1] (Homo sapiens, COLO 205, 96 h) turned out to be 220 nM. For the same compound, the IC50 in assay [2] was determined as 255 nM.

Take `CCn1c(CN(Cc2ccccc2)Cc2ccccc2)nc2cc(/C=C/C(=O)NO)ccc21` [Compound 68]: the IC50 in assay [3] worked out at 294 nM.

As to `Cn1c(CNC(=O)Cc2ccc(F)cc2)nc2cc(/C=C/C(=O)NO)ccc21` [Compound 69], the IC50 in assay [3] was found to be 146 nM.

On to `CCn1c(CCNC(=O)Cc2ccccc2)nc2cc(/C=C/C(=O)NO)ccc21` [Compound 70], for which, in assay [1] (read-out: GI50 (Colo 205)), the concentration for 50% growth inhibition (GI50) was found to be 2900 nM. Besides, the IC50 in assay [3] stood at 923 nM.

Regarding `CCn1c(CCNS(=O)(=O)c2ccccc2)nc2cc(/C=C/C(=O)NO)ccc21` [Compound 71], in assay [3], the IC50 amounted to 167 nM.

Take `CCn1c(CCNC(=O)COc2ccccc2)nc2cc(/C=C/C(=O)NO)ccc21` [Compound 73]: in assay [3], the IC50 is 560 nM.

Consider `CCn1c(CCNCc2ccccc2)nc2cc(/C=C/C(=O)NO)ccc21` [Compound 74, N-Hydroxy-3-[2-(2-benzylamino-ethyl)-1-ethyl-1H-benzimidazol-5-yl]-acrylamide], for which the concentration for 50% growth inhibition (GI50) in assay [1] (Homo sapiens, COLO 205) stood at 2070 nM.

As for `CC(C)(C)Cn1c(CCc2ccccc2)nc2cc(/C=C/C(=O)NO)ccc21` [Compound 75], the concentration for 50% growth inhibition (GI50) in assay [1] (read-out: GI50 (Colo 205)) turned out to be 2880 nM.

Consider `O=C(/C=C/c1ccc2c(c1)nc(CCc1ccccc1)n2C1CCN(Cc2ccccc2)CC1)NO` [Compound 76], for which the half-maximal inhibitory concentration (IC50) in assay [3] came to 1030 nM.

Turning to `O=C(/C=C/c1ccc2c(c1)nc(CCc1ccccc1)n2CCO)NO` [Compound 77], the 50% inhibitory concentration (IC50) in assay [3] came out at 570 nM.

In the case of `O=C(/C=C/c1ccc2c(c1)nc(CCc1ccccc1)n2CCCCCO)NO` [Compound 78], the IC50 in assay [3] is over 100000 nM.

Take `C=CCn1c(CCc2ccccc2)nc2cc(/C=C/C(=O)NO)ccc21` [Compound 79]: the IC50 in assay [3] was 1260 nM.

`CC(C)OCCCn1c(CCc2ccccc2)nc2cc(/C=C/C(=O)NO)ccc21` [Compound 80]: the IC50 in assay [3] turned out to be 1690 nM.

For `CN1CCN(CCCn2c(CCc3ccccc3)nc3cc(/C=C/C(=O)NO)ccc32)CC1` [Compound 81], the IC50 in assay [3] is 1600 nM.

In assay [1] (Homo sapiens, COLO 205, 96 h), `O=C(/C=C/c1ccc2c(c1)nc(CCc1ccccc1)n2CCCN1CCCC1)NO` [Compound 82, N-Hydroxy-3-[2-phenethyl-1-(3-pyrrolidin-1-yl-propyl)-1H-benzimidazol-5-yl]-acrylamide] came in with a GI50 of 720 nM.

As to `CN(C)CC(C)(C)Cn1c(CCCc2ccccc2)nc2cc(/C=C/C(=O)NO)ccc21` [Compound 83], the IC50 in assay [3] was 71 nM.

`CN(C)CC(C)(C)Cn1c(CCc2ccc(F)cc2)nc2cc(/C=C/C(=O)NO)ccc21` [Compound 84]: in assay [3], the IC50 came to 54 nM.

Compound `CN(C)CC(C)(C)Cn1c(CCc2cccnc2)nc2cc(/C=C/C(=O)NO)ccc21` [Compound 86, N-Hydroxy-3-[1-(3-Dimethylamino-2,2-dimethyl-propyl)-2-(2-pyridin-3-yl-ethyl)-1H-benzimidazol-5-yl]acrylamide] had a 50% growth inhibitory concentration (GI50) in assay [1] (Homo sapiens, COLO 205) of 13100 nM.

The compound `COc1cc(Cn2c(CCc3ccccc3)nc3cc(C4CC4C(=O)NO)ccc32)cc(OC)c1OC` (stereo not drawn) [Compound 88, 2-[2-Phenethyl-1-(3,4,5-trimethoxy-benzyl)-1H-benzimidazol-5-yl]-cyclopropanecarboxylic acid hydroxyamide] yielded a GI50 in assay [1] (Homo sapiens, COLO 205, 96 h) of 1260 nM. In addition, the IC50 in assay [3] amounted to 297 nM.

Take `O=C(/C=C/c1ccc2c(c1)ncn2CCN1CCCCC1)NO` [Compound 90]: the IC50 in assay [3] is 166 nM.
